Laboratory results as given in PubChem BioAssay (NCI).
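Following 48 hours of exposure in 96-well plates, responses at five concentrations were used to interpolate endpoints linearly. The concentration for full growth arrest is given as TGI.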

Assays:
Experiment in all cases: inhibition of tumour cell growth, NCI panel, 48 h
DLD-1 colon = system: DLD-1 colon
DMS 114 small cell lung = system: DMS 114 small cell lung
HOP-18 NSCLC = system: HOP-18 NSCLC
KM20L2 colon = system: KM20L2 colon
LXFL 529 NSCLC = system: LXFL 529 NSCLC
M19-MEL melanoma = system: M19-MEL melanoma
RXF-631 renal = system: RXF-631 renal
SNB-78 CNS = system: SNB-78 CNS
XF 498 CNS = system: XF 498 CNS

SMILES | TGI (DLD-1 colon) [µM] | TGI (DMS 114 small cell lung) [µM] | TGI (HOP-18 NSCLC) [µM] | TGI (KM20L2 colon) [µM] | TGI (LXFL 529 NSCLC) [µM] | TGI (M19-MEL melanoma) [µM] | TGI (RXF-631 renal) [µM] | TGI (SNB-78 CNS) [µM] | TGI (XF 498 CNS) [µM]
C#CCNC(=O)NCCCC(NC(C)=O)C(=O)NCc1ccccc1 (stereo not drawn) | > 100 | > 100 | > 100 | > 100 | > 100 | > 100 | > 100 | > 100 | –
CN(C)CCC(O)(c1ccccc1)C(O)(CCN(C)C)c1ccccc1 (stereo not drawn) | > 100 | > 100 | – | > 100 | > 100 | > 100 | – | > 100 | > 100
Nc1nc(NCCO)c(N=O)c(=O)[nH]1 | > 100 | > 100 | > 100 | > 100 | > 100 | > 100 | – | > 100 | > 100
CCOc1ccc(NC(=O)C2=C(C)NC(C)=C(C(=O)Nc3ccc(OCC)cc3)C2c2ccc(O)c(OC)c2)cc1 | > 100 | > 100 | – | > 100 | > 100 | > 100 | > 100 | > 100 | 52
N#CCCN(c1ccc(/C=C2\N=C(Cc3ccccc3)OC2=O)cc1)S(=O)(=O)c1ccccc1 | > 100 | > 100 | – | > 100 | > 100 | – | – | > 100 | > 100
CCN(CC)c1ccc(/C=C2/C[N+](C)(C)C/C(=C/c3ccc(N(CC)CC)cc3)C2=O)cc1 | > 100 | 3.38 | 25 | 12.9 | 2.81 | 2.84 | > 100 | 9.62 | 6.59
O=C(CC(=O)Nc1cccc(Cl)c1)NNCC(=O)Nc1nnc(-c2ccccc2)s1 | > 100 | > 100 | 58.6 | > 100 | > 100 | > 100 | > 100 | > 100 | 76.3
NC(=O)c1cccc(C2OC(COP(=O)(O)O)C(O)C2O)c1 (stereo not drawn) | > 50 | – | – | > 50 | > 50 | > 50 | – | > 50 | > 50
N#CC(C(=O)/C(=N/NC(=O)c1ccccc1O)C(C#N)c1ccccc1)c1ccccc1 (stereo not drawn) | > 100 | > 100 | > 100 | > 100 | > 100 | > 100 | > 100 | > 100 | > 100
Nc1ccc2nc(NCc3ccc(F)cc3)cnc2c1 | – | > 100 | – | > 100 | > 100 | – | – | > 100 | > 100
Cn1c2c(c3ccccc31)CCN(CCN1CCN(c3ccccc3)CC1)C2=O | > 100 | > 100 | > 100 | > 100 | > 100 | – | > 100 | – | 61.3
CC(=O)O[C@]12CCCCC1C1(O)C(O)CCCCC12 (stereo partly drawn) | – | > 100 | > 100 | > 100 | > 100 | > 100 | – | > 100 | –
NC(=O)C#CC#CC#CCO | – | 3.6 | 3.28 | 27.3 | 2.35 | 3.26 | – | 7.03 | –
O=C1[C@@H]2C(c3ccc(Cl)cc3Cl)=NO[C@@H]2C(=O)N1c1ccc(Cc2ccc(N3C(=O)[C@H]4C(c5ccc(Cl)cc5Cl)=NO[C@H]4C3=O)cc2)cc1 | > 100 | > 100 | > 100 | > 100 | 52.2 | > 100 | – | > 100 | > 100
Cc1ccc(N=NC2S/C(=C(\C#N)c3nc4ccccc4[nH]3)N(c3ccccc3)C2=O)cc1 (stereo not drawn) | > 100 | > 100 | – | > 100 | > 100 | > 100 | – | > 100 | > 100
CCCCCCCc1cc(OC(=O)c2c(C)cc(OC)cc2O)cc(O)c1C(=O)O | 34.7 | – | – | 40.3 | 34 | 50.7 | 63.9 | > 100 | –
CCCOC(=O)C1CCC(=O)N1C(=O)C(C)Cl (stereo not drawn) | > 100 | > 100 | > 100 | > 100 | > 100 | > 100 | – | > 100 | > 100
COc1ccccc1/C=C(\C#N)C(=O)c1ccccc1 | – | > 100 | – | > 100 | – | > 100 | – | > 100 | > 100
COc1ccc(NC(=O)CC(=O)N2N=C(N(CCC#N)c3ccccc3Cl)CC2c2ccccc2)cc1 (stereo not drawn) | > 100 | > 100 | > 100 | > 100 | > 100 | > 100 | > 100 | > 100 | > 100
CCOc1ccc(NC(=O)C(=O)NO)cc1 | > 100 | > 100 | > 100 | > 100 | > 100 | > 100 | – | > 100 | –
CC1OC(n2ccc(=O)[nH]c2=O)C=C(OC(=O)c2ccccc2)C1=O (stereo not drawn) | > 100 | – | > 100 | > 100 | – | > 100 | – | > 100 | > 100
Cc1ccccc1C1OC(=O)c2ccccc21 (stereo not drawn) | > 100 | > 100 | > 100 | > 100 | > 100 | > 100 | > 100 | > 100 | –
